What was measured:
C57B/6 mice = assay: Carvacrol-induced itch-scratching behavior in mice; type: in vivo, mouse
Procedure: To assess itch-scratching behaviors, the hair of the rostral part of the mouse’s right neck was shaved using an electric hair clipper 24 hr before the start of experiments. Trpv3^-/- mice have been described previously ([Wang et al., 2021]). Scratching behaviors were recorded on video. The number of itch-scratching bouts was counted through video playback analysis. One scratching bout was defined as an episode in which a mouse lifted its right hind limb to the injection site and scratched continuously for any time length until this limb was returned to the floor or mouth ([Wilson et al., 2013]). All behavioral experiments were conducted in a double-blind manner. […] [Sun and Dong, 2016]).

TRPV3 = target: T1, TRPV3 (Mus musculus, UniProt Q8K424); assay: Heat-activated TRPV3 currents (infrared laser temperature jump) in HEK 293T cells; type: cell-based
T1 construct: expressed in transfected cells; host or cells: HEK 293T
T1 sequence (Q8K424 1-791): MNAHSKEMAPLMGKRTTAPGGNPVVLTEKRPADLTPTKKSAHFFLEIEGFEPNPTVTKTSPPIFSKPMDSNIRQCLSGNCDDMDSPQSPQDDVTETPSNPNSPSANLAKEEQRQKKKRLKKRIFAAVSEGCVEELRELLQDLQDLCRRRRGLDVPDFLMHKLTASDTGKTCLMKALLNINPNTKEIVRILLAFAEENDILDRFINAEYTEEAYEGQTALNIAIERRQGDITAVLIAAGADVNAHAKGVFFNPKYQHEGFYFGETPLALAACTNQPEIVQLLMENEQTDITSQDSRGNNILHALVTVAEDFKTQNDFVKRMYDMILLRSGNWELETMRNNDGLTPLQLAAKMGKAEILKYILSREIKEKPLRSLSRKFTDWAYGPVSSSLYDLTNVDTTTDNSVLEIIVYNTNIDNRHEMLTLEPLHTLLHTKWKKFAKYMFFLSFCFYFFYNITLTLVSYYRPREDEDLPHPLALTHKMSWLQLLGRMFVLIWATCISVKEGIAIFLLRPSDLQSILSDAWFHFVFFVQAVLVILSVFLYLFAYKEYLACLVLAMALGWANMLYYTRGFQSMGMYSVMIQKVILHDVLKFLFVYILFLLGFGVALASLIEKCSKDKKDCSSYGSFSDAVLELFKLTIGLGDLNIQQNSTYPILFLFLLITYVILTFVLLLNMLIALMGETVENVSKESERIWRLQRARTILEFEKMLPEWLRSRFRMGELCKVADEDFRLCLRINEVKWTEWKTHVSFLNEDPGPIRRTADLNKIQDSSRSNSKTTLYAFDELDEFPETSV
Description: (§1) Conventional whole-cell and excised patch-clamp recording methods were used. For the recombinant expressing system, green fluorescent EGFP was used as a surface marker for gene expression. Recording pipettes were pulled from borosilicate glass capillaries (World Precision Instruments) and fire-polished to a resistance between 2 and 4 MΩ when filled with internal solution containing (in mM) 140 CsCl, 2.0 MgCl2, 5 EGTA, and 10 HEPES, pH 7.4 (adjusted with CsOH). Bath solution contained (in mM): 140 NaCl, 5 KCl, 3 EGTA, and 10 HEPES, pH 7.4 adjusted with NaOH. […] For a subset of recordings, currents were amplified using an Axopatch 200B amplifier (Molecular Devices, Sunnyvale, CA) and recorded through a BNC-2090/MIO acquisition system (National Instruments, Austin, TX) using QStudio developed by Dr. Feng Qin at State University of New York at Buffalo. […] As determined by the conductance tests, the solution around a patch under study was fully controlled by the application of a flow rate of 100 μl/min or greater. […]
Constant temperature steps were generated by irradiating the tip of an open pipette and using the current of the electrode as the readout for feedback control. […]

mouse TRPV3 = target: T2, mouse TRPV3 (Mus musculus, UniProt Q8K424); assay: Voltage-step whole-cell recording of TRPV3 currents (40 μM 2-APB) in HEK 293T cells; type: cell-based; parameters: expressed in transfected cells; host or cells: HEK 293T; conditions: steps –160 to +180 mV, dyclonine 10, 30 μM, RR 10 μM
T2 sequence (Q8K424 1-791): T1 sequence (Q8K424 1-791)
Description: as §1, with “NaOH. For recordings in keratinocytes, the bath saline consisted of (in mM) 140 NaCl, 5 KCl, 2 MgCl2, 2 CaCl2, 10 glucoses, and 10 HEPES, pH 7.4 adjusted with NaOH, and the pipette solution contained (in mM) 140 CsCl, 5 EGTA, and 10 HEPES, pH 7.3 adjusted with CsOH.” for “NaOH.”

Hill coefficient nH (TRPV3): 1.9 ± 0.54
SMILES: CCCCOc1ccc(C(=O)CCN2CCCCC2)cc1 [dyclonine]
scratching bouts over 30 min (C57B/6 mice; 50 μl dyclonine 1 μM intradermal 30 min before carvacrol (0.1%, 50 μl)): 130.0 ± 20.3
scratching bouts over 30 min (C57B/6 mice; 50 μl dyclonine 10 μM intradermal 30 min before carvacrol (0.1%, 50 μl)): 82.0 ± 15.0
scratching bouts over 30 min (C57B/6 mice; 50 μl dyclonine 50 μM intradermal 30 min before carvacrol (0.1%, 50 μl)): 18.0 ± 8.0
effect on TRPV3-mediated inward and outward currents (voltage dependence) (mouse TRPV3): the inhibition occurred independently of the membrane potential

From paper PMC8112869, “Therapeutic inhibition of keratinocyte TRPV3 sensory channel by local anesthetic dyclonine” (eLife, 2021)
